Assay results from patent US8383656B2, “Thiazolidinedione energy restriction-mimetic agents” (The Ohio State University Research Foundation, priority 2009, dated 2013).
Where two headings read alike, the source gives them in different places.

Legend:
[1] = test system: LNCaP prostate cancer cells; assay: MTT cell viability assay, LNCaP cells; format: cell-based; details: Homo sapiens
Description: The compounds were tested for their ability to decrease LNCaP prostate cancer cell viability as measured by the 3-(4,5-dimethylthiazol-2-yl)-2,5-diphenyltetrazolium bromide) (MTT) assay.
(§1) Cell viability was determined using the 3-(4,5-dimethylthiazol-2-yl)-2,5-diphenyltetrazolium bromide) (MTT) assay. LNCaP and MCF-7 cells were seeded in 96-well plates (5000 cells/well) and incubated in their respective culture media supplemented with 10% FBS for 24 h. […] Drug-containing medium was then replaced with 1×MTT (0.5 mg/mL in RPMI 1640), followed by incubation at 37° C. for 2 h. After removal of medium, the reduced MTT dye was solubilized in 200 μL/well DMSO, and absorbances were measured at 570 nm.

[2] = test system: MCF-7 breast cancer cells; assay: MTT cell viability assay, MCF-7 cells; format: cell-based; details: Homo sapiens, MCF7, 72 h, 10% FBS-supplemented medium, read-out: IC50 in inhibiting the viability of MCF-7 breast cancer cells
Description: as §1

[3] = test system: Sirt1 gene expression in LNCaP cells; assay: Time course of Sirt1 expression in LNCaP cells (Western blot/RT-PCR); format: cell-based; details: OSU-CG12 10 μM, 2-DG 10 mM
Description: Total RNA was isolated from drug-treated LNCaP cells using the RNeasy mini kit (Qiagen, Valencia, Calif.), and then reverse-transcribed to cDNA using the Omniscript RT Kit (Qiagen) according to manufacturer's instructions. PCR products were separated electrophoretically in 1% agarose gels and visualized by ethidium bromide staining.
Transfections were performed by electroporation using Nucleofector kit R of the Amaxa Nucleofector system (Amaxa Biosystems, Cologne, Germany). LNCaP cells were transfected with the following plasmids or siRNA: WT- and H363Y-Flag-Sirt1 (DN-Sirt1), WT- and K45R-Myc-AMPK (DN-AMPK), GFP-LC3, TSC2 shRNA, and DDIT3 siRNA (GADD153). […] For the fluorescent microscopic analysis, LNCaP cells transfected with the GFP-LC3 expression plasmid or with scrambled or TSC2 shRNA were treated as indicated for 36 h. After cells were fixed with 3.7% formaldehyde at room temperature for 20 min, nuclear counterstaining was performed using a 4,6-diamidino-2-phenylindole (DAPI)-containing mounting medium (Vector Laborotaries, Burlingame, Calif.) before examination. Images were observed using a Nikon microscope (Eclipse TE300).

glucose metabolism = assay: In vitro potency in blocking glucose metabolism; format: cell-based
[4] = test system: normal prostate epithelial cells (PrECs)
Description: LNCaP hormone-responsive prostate cancer cells and MCF-7 ERα-positive breast cancer cells were obtained from the American Type Culture Collection (Manassas, Va.) and maintained with 10% fetal bovine serum (FBS)-supplemented RPMI 1640 medium and F12/DMEM medium, respectively. Nonmalignant prostate epithelial cells (PrEC) were maintained in prostate epithelial growth medium (PrEGM) (Lonza Inc., Walkersville, Md.). All cells were cultured at 37° C. in a humidified incubator containing 5% CO2. […] Glucose-free RPMI 1640 medium was purchased from Invitrogen (Carlsbad, Calif.). 2-DG, resveratrol, 3-methyladenine (3-MA), nicotinamide and splitomicin were purchased from Sigma-Aldrich (St. Louis, Mo.). The AMPK inhibitor Compound C and cycloheximide were obtained from Calbiochem (San Diego, Calif.). These agents were added to medium with a final DMSO concentration of 0.1%.
as §1

cancer cells = details: reported in literature; cited from earlier work
[5] = test system: LPS-stimulated IL-6 production in THP-1 macrophages; assay: ELISA of LPS-stimulated IL-6 production in THP-1 macrophages; format: cell-based, human; details: 10 μM; for first-tier screening result (AMPK/mTOR activation status and IL-6/IL-6 receptor signaling): LPS-stimulated THP-1 macrophages; for inhibition at 10 µM: Homo sapiens, 6 h, LPS-stimulated THP-1, read-out: inhibition of IL-6 production
Description: Cells and cell culture. THP-1 monocytic cells were purchased from the American Type Culture Collection (Rockville, Md.), and maintained with L-glutamine-containing RPMI 1640 supplemented with 10% fetal bovine serum (FBS), 0.25% glucose, 0.01% sodium pyruvate, 50 μM 2-mercaptoethanol, and 0.1 ml/ml penicillin/streptomycin/L-glutamine. Differentiation of THP-1 monocytes into macrophages was carried out by exposure to PMA (50 nM) in the aforementioned RPMI 1640 medium for 24 h. Colon-26 (C-26) adenocarcinoma cells were provided by a researcher at The Ohio State University. The C-26 cells were maintained in RPMI 1640 medium supplemented with 5% FBS and 1% penicillin/streptomycin.
ELISA. IL-6 release by differentiated THP-1 macrophages in response to 10 ng/ml of LPS was analyzed by using the IL-6 ELISA kit (Cayman Chemical Co.; Ann Arbor, Mich.) according to the manufacturer's instruction in triplicate. The effect of each test compound on LPS-stimulated IL-6 release is presented as percent inhibition and was calculated using the following formula: percentage inhibition=100%×{1−[(O.D. of sample−O.D. of control)/(O.D. of LPS−O.D. of control)]}.

[6] = test system: human tumor cell lines of the cancer screening panel; assay: NCI60 cell line screening; format: cell-based; details: 48 h, SRB; variety of cancer cell types
Description: The NCI60 screening method was carried out using the following methodology. The human tumor cell lines of the cancer screening panel were grown in RPMI 1640 medium containing 5% fetal bovine serum and 2 mM L-glutamine. The cells were then inoculated into 96 well microtiter plates in 100 μL at plating densities ranging from 5,000 to 40,000 cells/well depending on the doubling time of individual cell lines. After cell inoculation, the microtiter plates are incubated at 37° C., 5% CO2, 95% air and 100% relative humidity for 24 h prior to addition of the thiazolidinedione derivatives. […]
Following drug addition, the plates were incubated for an additional 48 h at 37° C., 5% CO2, 95% air, and 100% relative humidity. […] Bound stain is subsequently solubilized with 10 mM trizma base, and the absorbance was read on an automated plate reader at a wavelength of 515 nm. […] Using the seven absorbance measurements [time zero, (Tz), control growth, (C), and test growth in the presence of drug at the five concentration levels (Ti)], the percentage growth is calculated at each of the drug concentrations levels. Percentage growth inhibition is calculated as: [(Ti−Tz)/(C−Tz)]×100 for concentrations for which Ti>/=Tz [(Ti−Tz)/Tz]×100 for concentrations for which Ti<Tz.
Three dose response parameters were calculated for each experimental agent. […]

THP-1 cells = assay: MTT viability of THP-1 cells; format: cell-based, human; details: at the concentrations used for IL-6 ELISA (dose range b224, 10 μM b226, 1 μM b229)
[7] = test system: [3H]-2-DG uptake into LNCaP cells; assay: Glucose uptake assay ([3H]-2-DG); format: cell-based; details: OSU-CG12 at 5 and 10 μM, resveratrol at 50 and 100 μM, P<0.05
Description: After washing cells with PBS, glucose uptake was initiated by addition of 1 mL of PBS containing 1 μCi/mL [^3H]-2-DG (Perkin Elmer, Waltham, Mass.) and […] nonradioactive 2-DG. After 5 min, glucose uptake was terminated by extensive washing with PBS, and cells were solubilized in 0.1% SDS buffer. Aliquots were taken for measurements of radioactivity using a scintillation counter LS6500 (Beckman).

[8] = LNCaP, MTT, 72 h, 10% FBS-supplemented medium, read-out: IC50 in inhibiting the viability of LNCaP prostate cancer cells

| Structure (SMILES) | IC50 [1, 8] [µM] | IC50 [2] [µM] | first-tier screening result (AMPK/mTOR activation status and IL-6/IL-6 receptor signaling) [5] | inhibition at 10 µM [5] [%] | other results |
| --- | --- | --- | --- | --- | --- |
| O=CC[C@@H](O)[C@H](O)[C@H](O)CO [2-DG, 2-deoxyglucose] | 5500 | 4200 |  |  | duration of transient transcriptional activation of Sirt1 gene expression [3]: 4 h; IC50 (glucose metabolism): ≥ 4000 µM; cytotoxicity to normal prostate epithelial cells (PrECs) [4]: low cytotoxicity; dose range inducing autophagy in cancer cells (cancer cells): 5 to 25 mM |
| CCOc1c(C)c(C)c2c(c1C)CCC(C)(COc1ccc(C=C3SC(=O)NC3=O)cc1Br)O2 (stereo not shown) [Compound 8, 5-[3-Bromo-4-(6-ethoxy-2,5,7,8-tetramethyl-chroman-2-ylmethoxy)-benzylidene]-thiazolidine-2,4-dione] |  |  | active | > 80 |  |
| CCCCOc1c(C)c(C)c2c(c1C)CCC(C)(COc1ccc(C=C3SC(=O)NC3=O)cc1OC)O2 (stereo not shown) [Compound 12, 5-[4-(6-Butoxy-2,5,7,8-tetramethyl-chroman-2-ylmethoxy)-3-methoxy-benzylidene]-thiazolidine-2,4-dione] |  |  | active | > 80 |  |
| Cc1c(C)c2c(c(C)c1OCCCC#N)CCC(C)(COc1ccc(C=C3SC(=O)NC3=O)cc1Br)O2 (stereo not shown) [Compound 21, 4-{2-[2-Bromo-4-(2,4-dioxo-thiazolidin-5-ylidenemethyl)-phenoxymethyl]-2,5,7,8-tetramethyl-chroman-6-yloxy}-butyronitrile] |  |  | active | > 80 |  |
| CCCN1C(=O)SC(=Cc2ccc(O)c(C(F)(F)F)c2)C1=O [Compound 44, 5-(4-Hydroxy-3-trifluoromethyl-benzylidene)-3-propyl-thiazolidine-2,4-dione] |  |  |  | > 80 |  |
| COc1ccc(S(=O)(=O)Nc2ccc(C=C3SC(=O)N(CC4(C)CCCCC4)C3=O)cc2)cc1 [Compound 49, 4-Methoxy-N-{4-[3-(1-methyl-cyclohexylmethyl)-2,4-dioxo-thiazolidin-5-yli-denemethyl]-phenyl}-benzenesulfonamide] |  |  | active |  |  |
| CC1(CN2C(=O)SC(=Cc3ccc(NS(=O)(=O)c4ccc([N+](=O)[O-])cc4)cc3)C2=O)CCCCC1 [Compound 54, N-{4-[3-(1-Methyl-cyclohexylmethyl)-2,4-dioxo-thiazolidin-5-ylidenemethyl]-phenyl}-4-nitro-benzenesulfonamide] |  |  | active | > 80 |  |
| CCC(CC)CN1C(=O)S/C(=C\c2ccc(O)c(C(F)(F)F)c2)C1=O [OSU-CG5, (Z)-3-(2-Ethyl-butyl)-5-(4-hydroxy-3-trifluoromethyl-benzylidene)-thiazolidine-2-4-dione] |  |  |  |  | antitumor potency in NCI 60 cell line screening [6]: significantly antitumor potency |
| C=CCOc1c(C)c(C)c2c(c1C)CCC(C)(COc1ccc(/C=C3\SC(=O)NC3=O)cc1Br)O2 (stereo not shown) [STG28] | 12 | 11 |  |  |  |
| CC1(COc2ccc(CC3SC(=O)NC3=O)cc2)CCCCC1 (stereo not shown) [ciglitazone] | 70 | 42 |  |  | effect on viability of THP-1 cells (THP-1 cells): neither agent inhibited the viability of THP-1 cells |
| Oc1ccc(C=Cc2cc(O)cc(O)c2)cc1 [resveratrol] | 110 | 60 |  |  | IC50 ([1]; summary over LNCaP and MCF-7 cells, read-out: IC50 in suppressing cancer cell growth): 60 to 110 µM; inhibition of glucose uptake [7]: significantly inhibit glucose uptake; IC50 (glucose metabolism): ≥ 50 µM; cytotoxicity to normal prostate epithelial cells (PrECs) [4]: low cytotoxicity; dose range inducing autophagy in cancer cells (cancer cells): 0.05 to 0.1 mM |
| Cc1c(C)c2c(c(C)c1O)CCC(C)(COc1ccc(CC3SC(=O)NC3=O)cc1)O2 (stereo not shown) [troglitazone] | 70 | 70 |  |  |  |
